Source: patent US11059843B2, “Stevioside M crystal form, preparation method therefor and use thereof” (ZHUCHENG HAOTIAN PHARM CO., LTD., priority 2017, dated 2021)

Legend:
[1] = Dynamic moisture adsorption (DVS) hygroscopicity; type: physicochemical; settings: for hygroscopic mass change (0%-40% RH) / hygroscopicity: water absorption at 40% RH / hygroscopic mass change (40%-80% RH) / hygroscopicity: water absorption at 80% RH: DVS, 25° C.
Protocol: DVS analysis: It was measured using DVS Intrinsic type dynamic moisture adsorption instrument from British SMS instrument company, measuring temperature: 25° C.; relative humidity: 0-95%.

[2] = Crystal form stability by XRPD after drying at 105° C. for one day; type: physicochemical
Protocol: (§1) X-ray powder diffraction analysis (XRPD), differential scanning calorimetry analysis (DSC), thermogravimetric analysis (TG), dynamic moisture adsorption analysis (DVS) and the like were made for the crystal form A of stevioside M prepared in the above examples. XRPD analysis: It was tested at room temperature using a Bruker D8 advance type diffractometer from Bruker Instruments, Germany, Cu-Kα ray (λ=1.5418 Å) was used, the 2θ angle was scanned from 3 to 40 degrees, and the scanning speed was 0.2 degrees/second.
The crystal form A of stevioside M prepared in the above examples was subjected to XRPD analysis after drying at 105° C. for one day, and the analysis results are shown in FIG. 7. It can be seen from FIG. 7 that the crystal form is unchanged, and the crystal form has good stability under high temperature conditions. The crystal form B of stevioside M is extremely unstable under high temperature conditions, and which is amorphous after drying for one day at 105° C., and the analysis results are shown in FIG. 8.

[3] = Physical stability of crystal form on storage at 25° C. and RH 60% for half a year (XRPD); type: physicochemical
Protocol: as §1
The crystal form A of stevioside M prepared in the above examples was stored at 25° C. and RH 60% for half a year, and the analysis results are shown in FIG. 9.

[4] = Chemical stability by HPLC after storage at 40° C. and RH 75% for half a year; type: physicochemical
Protocol: HPLC analysis: It was determined using a 1260 infinity liquid chromatograph from Agilent Technologies, Inc., USA. Sample solution preparation method: 25-50 mg of stevioside M sample was accurately weighed, and added into a 25 ml volumetric flask, then water-acetonitrile (7:3, v/v) solution was added, dissolved to volume. Preparation method of sodium phosphate buffer (specification: 10 mmol/L, pH: 2.6): dissolving 2.76 g of sodium dihydrogen phosphate into 2 liters of water, adding phosphoric acid, and the pH was adjusted to 2.6. Chromatographic column: Luna 5μ C18(2) 100 A column from Phenomenex. Injection volume: 5 μl. Flow rate: 1.0 mL/min. Column temperature: 40° C. Detector: UV detection at 210 nm. The elution gradient is shown as follows: […]

[5] = Water solubility / powder dissolution profile; type: physicochemical
Protocol: The crystal form A of stevioside M prepared in the above examples has good reproducibility and is stable in water solubility, and has a maximum solubility of about 3 mg/mL, and the equilibrium solubility is about 2 mg/mL at 24 hours. The powder dissolution profiles of the two batches of crystal form A of stevioside M prepared by the examples are shown in FIG. 11. The water solubility of crystal form A is similar to that of the stevioside D-stevioside M amorphous composition (about 3 mg/mL) disclosed in Patent CN 105722533 A, and both of which can stably increase the water solubility by 2-3 times.

[6] = water at room temperature, stevioside M content of 75% to 90%; cited from earlier work

Row | Structure (SMILES) | hygroscopic mass change (0%-40% RH) [1] [%] | hygroscopicity: water absorption at 40% RH [1] | hygroscopic mass change (40%-80% RH) ([1]; 40%-80% RH) [%] | hygroscopicity: water absorption at 80% RH [1] | hygroscopicity compared with the amorphous form and crystal form B ([1]; 25° C. and 40% RH) | hygroscopicity compared with amorphism under normal storage ([1]; 40%-80% RH) | mass percentage of moisture absorption within a relative humidity of 0-40% ([1]; dynamic moisture adsorption profile FIG. 4, RH 0-40%) | mass percentage of moisture absorption within a relative humidity of 40-80% ([1]; dynamic moisture adsorption profile FIG. 4, RH 40-80%) | crystal form after drying (XRPD) [2] | crystal form after storage (XRPD) [3] | reduction of content (HPLC) after storage [4] | equilibrium solubility in water ([5]; at 24 hours) | maximum solubility in water ([5]; powder dissolution) | solubility in water [6]
1 | C=C1C[C@@]23CCC4[C@](C)(C(=O)OC5OC(CO)C(O)C(OC6OC(CO)C(O)C(O)C6O)C5OC5OC(CO)C(O)C(O)C5O)CCC[C@@]4(C)[C@@H]2CCC1(OC1OC(CO)C(O)C(OC2OC(CO)C(O)C(O)C2O)C1OC1OC(CO)C(O)C(O)C1O)C3 (stereo partly drawn) [amorphism of stevioside M, 13-[(2-O-β-D-pyranoglucosyl-3-O-β-D-pyranoglucosyl-β-D-pyranoglucosyl)oxyl]-ent-kauran-16-en-19-oic acid-[(2-O-β-D-pyranoglucosyl-3-O-β-D-pyranoglucosyl-β-D-pyranoglucosyl) ester], reference compound] | 11.0 | 40% RH, 11.0% of | 8.2 | 80% RH, 19.2% of | – | – | – | – | – | – | – | – | – | –
2 | C=C1C[C@@]23CCC4[C@](C)(C(=O)OC5OC(CO)C(O)C(OC6OC(CO)C(O)C(O)C6O)C5OC5OC(CO)C(O)C(O)C5O)CCC[C@@]4(C)[C@@H]2CCC1(OC1OC(CO)C(O)C(OC2OC(CO)C(O)C(O)C2O)C1OC1OC(CO)C(O)C(O)C1O)C3 (stereo partly drawn) [crystal form A of stevioside M, 13-[(2-O-β-D-pyranoglucosyl-3-O-β-D-pyranoglucosyl-β-D-pyranoglucosyl)oxyl]-ent-kauran-16-en-19-oic acid-[(2-O-β-D-pyranoglucosyl-3-O-β-D-pyranoglucosyl-β-D-pyranoglucosyl) ester]] | 9.4 | 40% RH, 9.4% of | 4.6 | 80% RH, 14.0% of | significantly less hygroscopic | less hygroscopic than amorphism | 0-9.4% | 9.4-14.0% | unchanged | unchanged | less than 0.2% | about 2 mg/mL | about 3 mg/mL | –
3 | C=C1C[C@@]23CCC4[C@](C)(C(=O)OC5OC(CO)C(O)C(OC6OC(CO)C(O)C(O)C6O)C5OC5OC(CO)C(O)C(O)C5O)CCC[C@@]4(C)[C@@H]2CCC1(OC1OC(CO)C(O)C(OC2OC(CO)C(O)C(O)C2O)C1OC1OC(CO)C(O)C(O)C1O)C3 (stereo partly drawn) [crystal form B of stevioside M, 13-[(2-O-β-D-pyranoglucosyl-3-O-β-D-pyranoglucosyl-β-D-pyranoglucosyl)oxyl]-ent-kauran-16-en-19-oic acid-[(2-O-β-D-pyranoglucosyl-3-O-β-D-pyranoglucosyl-β-D-pyranoglucosyl) ester]] | 15.3 | 40% RH, 15.3% of | 2.1 | 80% RH, 17.4% of | – | – | – | – | amorphous | – | – | – | – | –
4 | C=C1C[C@@]23CCC4[C@](C)(C(=O)OC5OC(CO)C(O)C(OC6OC(CO)C(O)C(O)C6O)C5OC5OC(CO)C(O)C(O)C5O)CCC[C@@]4(C)[C@@H]2CCC1(OC1OC(CO)C(O)C(OC2OC(CO)C(O)C(O)C2O)C1OC1OC(CO)C(O)C(O)C1O)C3 (stereo partly drawn) [stevioside M, 13-[(2-O-β-D-pyranoglucosyl-3-O-β-D-pyranoglucosyl-β-D-pyranoglucosyl)oxyl]-ent-kauran-16-en-19-oic acid-[(2-O-β-D-pyranoglucosyl-3-O-β-D-pyranoglucosyl-β-D-pyranoglucosyl) ester]] | – | – | – | – | – | – | – | – | – | – | – | – | – | 0.1% to 0.15
